Test results taken from ChEMBL document CHEMBL2413005, “A novel necroptosis inhibitor-necrostatin-21 and its SAR study” (Bioorg Med Chem Lett, 2013).

Columns and labels:
[1] = Inhibition of RIP1/JNK2 (unknown origin)-mediated necrosis
[2] = biological target: Mitogen-activated protein kinase 10/Receptor-interacting serine/threonine-protein kinase 1 (Homo sapiens) (UniProt P53779+Q13546); experiment: Ratio of necrostatin-21 EC50 to compound EC50 for RIP1/JNK2 (unknown origin)-mediated necrosis; assay type: protein assay
Mitogen-activated protein kinase 10/Receptor-interacting serine/threonine-protein kinase 1 (Homo sapiens), sequence (P53779 whole entry, looked up): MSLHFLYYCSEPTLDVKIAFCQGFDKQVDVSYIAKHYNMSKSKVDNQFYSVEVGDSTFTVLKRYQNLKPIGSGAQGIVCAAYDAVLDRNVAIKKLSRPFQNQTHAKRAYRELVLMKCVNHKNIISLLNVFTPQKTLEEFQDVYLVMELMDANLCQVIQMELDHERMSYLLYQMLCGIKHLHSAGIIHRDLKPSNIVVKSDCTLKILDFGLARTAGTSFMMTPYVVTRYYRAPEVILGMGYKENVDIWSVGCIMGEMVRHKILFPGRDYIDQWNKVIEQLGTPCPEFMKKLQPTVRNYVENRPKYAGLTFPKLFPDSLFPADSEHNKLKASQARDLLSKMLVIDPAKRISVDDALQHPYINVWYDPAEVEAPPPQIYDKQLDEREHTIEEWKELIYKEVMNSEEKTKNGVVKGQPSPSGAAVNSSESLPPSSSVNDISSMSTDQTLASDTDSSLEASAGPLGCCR
Mitogen-activated protein kinase 10/Receptor-interacting serine/threonine-protein kinase 1 (Homo sapiens), sequence (Q13546 whole entry, looked up): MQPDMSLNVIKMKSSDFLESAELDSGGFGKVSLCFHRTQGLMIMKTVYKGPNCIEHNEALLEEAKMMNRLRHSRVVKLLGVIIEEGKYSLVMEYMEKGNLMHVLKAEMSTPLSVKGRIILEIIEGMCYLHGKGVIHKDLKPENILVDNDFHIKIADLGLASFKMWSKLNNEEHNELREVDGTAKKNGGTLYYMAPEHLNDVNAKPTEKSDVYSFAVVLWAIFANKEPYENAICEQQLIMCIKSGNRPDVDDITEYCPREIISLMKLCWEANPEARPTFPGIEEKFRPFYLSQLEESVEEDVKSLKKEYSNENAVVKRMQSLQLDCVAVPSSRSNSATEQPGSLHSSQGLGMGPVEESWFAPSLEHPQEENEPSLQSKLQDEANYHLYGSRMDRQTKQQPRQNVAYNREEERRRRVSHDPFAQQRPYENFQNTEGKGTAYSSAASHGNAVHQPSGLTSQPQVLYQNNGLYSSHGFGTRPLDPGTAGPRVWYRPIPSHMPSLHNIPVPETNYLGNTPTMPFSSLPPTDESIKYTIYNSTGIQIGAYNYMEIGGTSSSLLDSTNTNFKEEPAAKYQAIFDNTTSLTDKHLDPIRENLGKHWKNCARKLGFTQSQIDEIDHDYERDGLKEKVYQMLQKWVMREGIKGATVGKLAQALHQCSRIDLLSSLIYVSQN

Structure (SMILES) | EC50 [1] [µM] | Ratio EC50 [2]
Cc1cccc2c3c([nH]c12)-c1n[nH]cc1CC3 | 0.76 | –
c1ccc2c(c1)[nH]c1c2ccc2c[nH]nc21 | 3.62 | –
CCc1ccc2[nH]c3c(c2c1)CCc1c[nH]nc1-3 | 0.78 | –
c1[nH]nc2c1CCc1c-2[nH]c2cc3c(cc12)OCCO3 | 2.64 | –
Fc1cccc2c3c([nH]c12)-c1n[nH]cc1CC3 | 0.86 | –
c1[nH]nc2c1CCc1c-2[nH]c2cc3c(cc12)OCO3 | 0.15 | –
c1ccc2c3c([nH]c2c1)-c1n[nH]cc1C3 | 5.79 | –
COc1cccc2[nH]c3c(c12)CCc1c[nH]nc1-3 | 1.45 | –
Clc1cccc2[nH]c3c(c12)CCc1c[nH]nc1-3 | 0.67 | –
COc1ccc2[nH]c3c(c2c1)CCc1c[nH]nc1-3 | 0.17 | –
O=[N+]([O-])c1cccc2c3c([nH]c12)-c1n[nH]cc1CC3 | 6.32 | –
FC(F)(F)c1ccc2c3c([nH]c2c1)-c1n[nH]cc1CC3 | 0.25 | –
COc1ccc2c3c([nH]c2c1)-c1n[nH]cc1CC3 | 0.1 | –
CC1Cc2c([nH]c3ccccc23)-c2n[nH]cc21 (configuration not stated) | 0.81 | –
Fc1ccc2[nH]c3c(c2c1)CCc1c[nH]nc1-3 | 0.14 | –
COc1cc(OC)c2c3c([nH]c2c1)-c1n[nH]cc1CC3 | 0.11 | –
Clc1ccc2c3c([nH]c2c1)-c1n[nH]cc1CC3 | 0.25 | –
N#Cc1ccc2[nH]c3c(c2c1)CCc1c[nH]nc1-3 | 0.08 | –
COc1cc2[nH]c3c(c2cc1C#N)CCc1c[nH]nc1-3 | 0.014 | > 35
N#Cc1ccc2c3c([nH]c2c1)-c1n[nH]cc1CC3 | 0.11 | –
COc1cc2[nH]c3c(c2cc1OC)CCc1c[nH]nc1-3 | 0.047 | –
